Reference: paper PMC4440816, “Positron Emission Tomography studies with [^11C]PBR28 in the Healthy Rodent Brain: Validating SUV as an Outcome Measure of Neuroinflammation” (PLoS ONE, 2015)
Where “and” joins values, the source holds several entries; their conditions need not be identical. Equal entries are not always repeated. Blank lines part the entries; values can stand above or below the molecule they belong to.

What was measured:
[1] = target: T1, 18 kD Translocator protein (TSPO) (Rattus norvegicus, UniProt P16257); assay: Dynamic PET with arterial sampling; VT by 2-TCM and Logan graphical analysis, compared with SUV; type: in vivo, Wistar rats; conditions: for VT 2-TCM / VT Logan: n = 3; for VT Logan: t* = 21 min
T1 construct: from tissue; host or cells: brain of living healthy male Wistar rats (in vivo PET)
Experimental: (§1) The study was divided in two parts. In the first part arterial sampling was performed in four rats to allow for quantification of [^11C]PBR28 binding and comparison with the SUV. In the second part four rats and four mice were used to determine the test-retest variability of the SUV, with a 7-day interval between the scans.
(§2) The animals were anesthetized with isoflurane (induction 4–5% mixed with oxygen and maintenance 1.5–2% mixed with air/oxygen (50/50)) at a flow rate of 1 L/min and a cannula was inserted into the tail vein for the injection of [^11C]PBR28. After the cannulation, the rats were positioned into the nanoScan PET/MRI or nanoScan PET/CT (Mediso Ltd., Budapest, Hungary) in a transaxial position with their heads in the centre of the field of view. A bolus injection of [^11C]PBR28 was given via the canula in the tail vein at start of the PET measurement. The injection was followed by a saline flush. An emission scan of 63 minutes was acquired for all animals. The average injected radioactivity was 23 ± 5 MBq for the rats and 9.9 ± 1.6 MBq for the mice. The injected mass was 0.05 ± 0.03 μg (n = 8) in rats and 0.011 ± 0.011 μg (n = 8) in mice.
(§3) The PET data was acquired in list mode and was reconstructed into 25 timeframes (4x10 s, 4x20 s, 4x60 s, 7x180 s, 6x360 s) with MLEM reconstruction (20 iterations). Image data were not corrected for attenuation or scatter. For each animal a T1-weighted MRI scan (Isotropic FSE sequence, TR/TE: 2000/84.1) was made for anatomical reference.
(§4) Arterial blood sampling was performed during the PET scan in the first group of four rats. In addition to the insertion of the cannula in the tail vein, another cannula was inserted into the femoral artery. For the rats, sixteen arterial blood samples of 0.1 ml were taken for measurement of radioactivity in plasma and blood using a gamma counter. Four samples of 0.5 ml blood were taken for radiometabolite analysis at 4, 20, 40 and 60 minutes after injection.
(§5) The reconstructed dynamic PET measurements were manually aligned with the corresponding MRI scans. The MRI and PET scans were then normalized to the rat or mice brain MRI template available in PMOD (PMOD 3.2 Zurich, Switzerland). Eight regions of interest were defined using the available template in PMOD, i.e. the striatum, hippocampus, hypothalamus, midbrain, thalamus, cerebral cortex, brainstem and cerebellum. Time-activity curves were generated for each region of interest. For all animals the regional brain uptake values were expressed as SUV and were calculated for 57–63 minute after injection, i.e. the last time-frame. The time used for calculating the SUV was based on the tissue-to-plasma ratio obtained from the first part of the study. From 15–50 minutes the tissue-to-plasma ratio is declining, and the estimated equilibrium state is reached at 50–60 minutes after injection. However, it can be beneficial for future studies to use a shorter scan time, i.e. to allow for scanning of more animals per batch of [^11C]PBR28 and to improve counting statistics. The SUV was therefore also calculated for the time-frame of 39–45 minute after injection, In both cases the SUV was calculated according to Eq 1, and it was assumed that 1 cm^3 of brain tissue equals 1 g.
(§6) SUV=tissue activity concentration(Bq/cm3)/injected dose(Bq)/body weight(g) (1)
For the first groups, the arterial samples and percentage of metabolites were used to determine the metabolite corrected plasma-input function. Two-tissue compartment modelling (2-TCM) and Logan graphical analysis were used to calculate the volume of distribution (VT), using the metabolite corrected plasma curve as input. For the Logan analysis data was fitted from 21 minutes after injection (t* = 21 min).

[2] = Radiometabolite analysis of plasma by radio-HPLC; type: in vivo, Wistar rats
Experimental: as §4
To determine the percentages of radioactivity in plasma that corresponded to unchanged [^11C]PBR28 and its radioactive metabolites, reversed-phase HPLC was used. Plasma obtained after centrifugation of 0.5 ml blood at 2,000 g for 2–4 min was mixed with acetonitrile (0.35 ml) and centrifuged for 4 min. The acetonitrile extraction ratio was 93.5% ± 1.8% at 4 min, 87.8% ± 0.5% at 20 min, 85.2% ± 1.1% at 40 min and 78.9% ± 2.4% at 60 min. The supernatant was mixed with 2 ml of water and analysed using radio-HPLC. The radio-HPLC system used consisted of an interface module (D-7000; Hitachi: Tokyo, Japan), a L-7100 pump (Hitachi), an injector (model 7125, with a 5.0-mL loop; Rheodyne: Cotati, USA) equipped with a μ-Bondapak C18 column (300 x 7.8 mm, […]; Waters: New England, USA), and an ultraviolet absorption detector (L-7400, 254 nm; Hitachi) in series with a 150TR; Packard (housed in a shield of 50 mm thick lead) equipped with a 550 μL flow cell. Acetonitrile (A) and ammonium formate (100 mM) (B) were used as the mobile phase at 6.0 mL/min, according to the following gradient: 0–4 min (A/B), 40:60 → 80:20 v/v; 4.1–6 min(A/B), 80:20 v/v; 8 min (A/B), 40:60 v/v. Peaks for radioactive compounds eluting from the column were integrated and their areas were expressed as a percentage of the sum of the areas of all detected radioactive compounds (decay-corrected to the time of injection on the HPLC).

[3] = Arterial blood and plasma radioactivity (gamma counter); type: in vivo, Wistar rats; conditions: rats; for plasma/blood ratio of radioactivity: average
Experimental: as §4

[4] = target: T1, 18 kD Translocator protein (TSPO); assay: Small animal PET brain uptake (SUV) and test-retest, rats; type: in vivo, Wistar rats; conditions: for ICC of SUV / TRV of SUV: Rats, SUV 57–63 min, 7-day interval
Experimental: as §1, §2, §3, §5, §6
(§7) For the test-retest study the test-retest variability was calculated using Eq 2.
(§8) TRV=|test value−retest value|/(test value+retest value)/2*100 (2)
(§9) Additionally the […] correlation coefficient (ICC) was calculated as an index of the reliability of the test-retest measurement using Eq 3, where MS = mean sum of squares, BS = between-subjects, WS = within-subjects, and df = degrees of freedom. It combines the information of the difference between and within the test and retest scan. The ICC values were interpreted as follows: 0–0.2 indicated slight agreement, 0.3–0.4 indicated fair agreement, 0.5–0.6 indicated moderate agreement, 0.7–0.8 indicated substantial agreement, and >0.8 indicated almost perfect agreement between the test and retest measures.
(§10) ICC=MSBS−MSWS/MSBS+(dfWS*MSWS) (3)

[5] = target: T2, 18 kD Translocator protein (TSPO) (Mus musculus, UniProt P50637); assay: Small animal PET brain uptake (SUV) and test-retest, mice; type: in vivo, C57BL/6J mice; conditions: for ICC of SUV / TRV of SUV: Mice, SUV 57–63 min, 7-day interval
T2 construct: from tissue; host or cells: brain of living healthy male C57BL/6J mice (in vivo PET)
Experimental: as §1, §2, §3, §5, §6, §7, §8, §9, §10

TSPO = conditions: cited from earlier work
[6] = rats, eight brain regions, SUV 57–63 min
[7] = rats, 4 minutes after injection

VT 2-TCM ([1]; Brainstem, rats): 56.7 | VT Logan ([1]; Brainstem, rats): 49.7 | VT 2-TCM ([1]; Cerebellum, rats): 63.6 | VT Logan ([1]; Cerebellum, rats): 54.0 | VT 2-TCM ([1]; Cerebral cortex, rats): 45.3 | VT Logan ([1]; Cerebral cortex, rats): 41.5 | VT 2-TCM ([1]; Hippocampus, rats): 41.1 | VT Logan ([1]; Hippocampus, rats): 38.7 | VT 2-TCM ([1]; Hypothalamus, rats): 58.3 | VT Logan ([1]; Hypothalamus, rats): 51.3 | VT 2-TCM ([1]; Midbrain, rats): 40.9 | VT Logan ([1]; Midbrain, rats): 36.2 | VT 2-TCM ([1]; Striatum, rats): 37.4 | VT Logan ([1]; Striatum, rats): 34.5 | VT 2-TCM ([1]; Thalamus, rats): 35.8 | VT Logan ([1]; Thalamus, rats): 34.2 | SUV of sampled rats higher than SUV of non-sampled rats ([1]; data not shown): about 30% | total (whole) brain VT, Logan analysis ([1]; rats, average): 42.9 ± 1.7 and 43.1 | total brain VT, 2-TCM ([1]; rats, average): 47.3 | correlation (r^2) between average VT (2-TCM) and average SUV [1, 6]: 0.92 | correlation (r^2) between average VT (Logan) and average SUV [1, 6]: 0.94 | metabolism in rats ([2]; plasma): rapidly metabolized | fraction metabolized [2, 7]: about 60% | parent compound left in plasma [2, 7]: 40.7 ± 9.0% | parent compound left in plasma ([2]; rats, 20 minutes after injection): 8.2 ± 2.6% | parent compound left in plasma ([2]; rats, 40 minutes after injection, n = 1): 3.7% | parent compound left in plasma ([2]; rats, 60 minutes after injection): 2.9 ± 1.5% | plasma/blood ratio of radioactivity ([3]; 20 seconds after injection): 0.2 | plasma/blood ratio of radioactivity ([3]; 60 minutes after injection): 1.0 | time of peak uptake in blood and plasma after injection ([3]; arterial samples): around 20 seconds | ICC of SUV ([4]; Brainstem): 0.58 | TRV of SUV ([4]; Brainstem): 17.7 | ICC of SUV ([4]; Cerebellum): 0.72 | TRV of SUV ([4]; Cerebellum): 11.5 | ICC of SUV ([4]; Cerebral cortex): 0.81 | TRV of SUV ([4]; Cerebral cortex): 16.7 | ICC of SUV ([4]; Hippocampus): 0.88 | TRV of SUV ([4]; Hippocampus): 7.7 ± 3.5 and 7.7 | ICC of SUV ([4]; Hypothalamus): 0.59 | TRV of SUV ([4]; Hypothalamus): 20.4 ± 15.4 and 20.4 | ICC of SUV ([4]; Midbrain): 0.86 | TRV of SUV ([4]; Midbrain): 12.3 | ICC of SUV ([4]; Striatum): 0.69 | TRV of SUV ([4]; Striatum): 13.6 | ICC of SUV ([4]; Thalamus): 0.71 | TRV of SUV ([4]; Thalamus): 13.7 | time of maximum total brain uptake (SUV) after injection ([4]; non-sampled rats, i.v. bolus): around 1 min | ICC of SUV ([5]; Brainstem): 0.31 | TRV of SUV ([5]; Brainstem): 13.2 | ICC of SUV ([5]; Cerebellum): 0.29 | TRV of SUV ([5]; Cerebellum): 13.7 | TRV of SUV ([5]; Cerebral cortex): 13.4 | ICC of SUV ([5]; Hippocampus): 0.32 | TRV of SUV ([5]; Hippocampus): 6.9 ± 4.7 and 6.9 | ICC of SUV ([5]; Hypothalamus): 0.01 | TRV of SUV ([5]; Hypothalamus): 23.0 | ICC of SUV ([5]; Midbrain): 0.02 | TRV of SUV ([5]; Midbrain): 15.1 | TRV of SUV ([5]; Striatum): 23.6 ± 15.6 and 23.6 | ICC of SUV ([5]; Thalamus): 0.71 | TRV of SUV ([5]; Thalamus): 7.6 | time of maximum total brain uptake (SUV) after injection ([5]; mice, i.v. bolus): around 1 min
Structure (SMILES): CC(=O)N(Cc1ccccc1O[11CH3])c1ccc(Oc2ccccc2)nc1 [[^11C]PBR28, N-acetyl-N-(2-[^11C]methoxybenzyl)-2-phenoxy-5-pyridinamine]
affinity for the TSPO (TSPO): high affinity | specific binding compared with [^11C]PK11195 (TSPO): higher specific binding

Structure (SMILES): CCC(C)N([11CH3])C(=O)c1cc2ccccc2c(-c2ccccc2Cl)n1 (centres unmarked) [[^11C]PK11195]
non-specific binding (TSPO): high level of non-specific binding
